Source: patent US20090054259A1, “METHODS FOR INDUCING COMPLETE APOPTOSIS OF LIVER CELLS EXPRESSING HBCHI PROTEIN AND SCREENING FOR SUBSTANCES OR GENES THAT INHIBIT THE APOPTOSIS” (priority 2004, published 2009)
Like-named read-outs stand apart in the source and are kept apart here.

Experiments:
[1] = system: Chang X31 cells; type: cell-based, human
[2] = system: Chang X31 cells; type: cell-based, human; details: for extent of apoptosis: 120 h
[3] = system: Chang X31 cells; test: DAPI staining, morphology of apoptosis; type: cell-based, human; details: 1.3 mM sulfasalazine, 72 hours
Method: (§1) Chang X 31 and Chang V9 cells were split on 6-well plates, and […], treated with 1.3 mM sulfasalazine.
(§2) 72 hours after the sulfasalzine treatment, DAPI staining was performed to observe apoptosis. The cells were directly fixed in the cold solution consisting of 1% […] and 0.2% glutaraldehyde for 5 min, washed twice with PBS and then stained with 1 mg/ml of DAPI solution (Sigma, USA). The cells were incubated for 5 hours in dark.
(§3) The stained cells were examined using a fluorescent microscopy.

[4] = system: Chang V9 cells; test: DAPI staining, morphology of apoptosis; type: cell-based, human; details: 1.3 mM sulfasalazine, 72 hours
Method: as §1, §2, §3

[5] = system: NF-κB; details: through inhibiting the phosphorylation of IκB; Wahl et al. 1998; cited from earlier work
[6] = system: Chang V9 cells; test: Induction of apoptosis by sulfasalazine in the control liver cell line not expressing HBx protein; type: cell-based, human; details: for extent of apoptosis: 120 h

Q: Which “apoptosis” value [1] does the source give for `N[C@@H](CCC(=O)N[C@@H](CS)C(=O)NCC(=O)O)C(=O)O` [GSH, glutathione] here?
A: only partial apoptosis

Q: And the “inhibition of the apoptosis of the liver cell line (conclusion)” value [1]?
A: effective in inhibiting the apoptosis

Q: For `CC(=O)N[C@@H](CS)C(=O)O` [NAC, N-acetyl-L-cystein], which “apoptosis” value ([1]; 2 mM GSH (group I), 1 mM NAC (group II) before 1.3 mM sulfasalazine, 120 h, crystal violet) is on record?
A: only partial apoptosis

Q: And the “inhibition of the apoptosis of the liver cell line (conclusion)” value ([1]; 2 mM GSH, 1 mM NAC, 0.5 mM STS, […])?
A: effective in inhibiting the apoptosis

Q: With `O=C(O)c1cc(/N=N/c2ccc(S(=O)(=O)Nc3ccccn3)cc2)ccc1O` [sulfasalazine] as the molecule, how does the survival rate ([2]; 1.0 mM sulfasalazine, re-treated at 48 h, read 72 h after re-treatment (120 h), […]) read?
A: at least 50%

Q: What about the extent of apoptosis ([2]; 1.3 mM sulfasalazine, […]) of the same molecule?
A: 100%

Q: What about the extent of apoptosis ([2]; at least 1.5 mM sulfasalazine, […]) of the same molecule?
A: 100%

Q: And the “concentration inducing complete apoptosis of Chang X31 cells” value ([2]; complete (100%) apoptosis within 120 hours)?
A: at least 1.3 mM

Q: And the “typical features of apoptosis (nuclear condensation, shrinkage, fragmentation)” value [3]?
A: observed in only Chang X 31

Q: What about the “typical features of apoptosis (nuclear condensation, shrinkage, fragmentation)” value [4] of the same molecule?
A: not in Chang V9

Q: What about the “effect on TNF-α-induced nuclear translocation of NF-κB” value [5] of the same molecule?
A: prevents TNF-α-induced nuclear translocation of NF-κB

Q: What about the survival rate ([6]; 1.0 mM sulfasalazine, re-treated at 48 h, read 72 h after re-treatment (120 h)) of the same molecule?
A: at least 50%

Q: What about the extent of apoptosis ([6]; 1.3 mM sulfasalazine) of the same molecule?
A: 10%

Q: What about the extent of apoptosis ([6]; at least 1.5 mM sulfasalazine) of the same molecule?
A: at least 20%

Q: For `CN[C@@H]1C[C@H]2O[C@@](C)([C@@H]1OC)n1c3ccccc3c3c4c(c5c6ccccc6n2c5c31)C(=O)NC4` [STS, staurosporine], which apoptosis ([1]; 0.5 mM STS (group III) before 1.3 mM sulfasalazine, 120 h, crystal violet) is on record?
A: 100%
